Each block holds one molecule with its values, some of them ahead of it.
Assays:
Assay in all cases: radiometric filter-binding kinase assay
[1] = target: EIF2AK3 (human) (UniProt Q9NZJ5)
[2] = target: PRKCG (human) (UniProt P05129)
[3] = target: SIK3 (human) (UniProt Q9Y2K2)
[4] = system: TGFBR1 (human), P36897 [T204D]
[5] = target: IRAK1 (human) (UniProt P51617)
[6] = target: CDK9 CCNT1 (human) (UniProt P50750+O60563)
[7] = target: STK33 (human) (UniProt Q9BYT3)
[8] = target: PDGFRA (human) (UniProt P16234)
[9] = target: CSNK1G2 (human) (UniProt P78368)
[10] = target: TSSK1B (human) (UniProt Q9BXA7)
[11] = target: PRKAA1 PRKAB2 PRKAG1 (human) (UniProt O43741+Q13131+P54619)
[12] = system: OXSR1 (human), O95747 [T185E]
[13] = target: ULK1 (human) (UniProt O75385)
[14] = target: SIK2 (human) (UniProt Q9H0K1)
[15] = target: ULK2 (human) (UniProt Q8IYT8)
[16] = target: STK16 (human) (UniProt O75716)
[17] = target: TESK1 (human) (UniProt Q15569)
[18] = target: TTBK1 (human) (UniProt Q5TCY1)
[19] = target: ZAP70 (human) (UniProt P43403)
[20] = target: MAP4K3 (human) (UniProt Q8IVH8)
[21] = target: DDR2 (human) (UniProt Q16832)
[22] = target: STK24 (human) (UniProt Q9Y6E0)
[23] = target: TTBK2 (human) (UniProt Q6IQ55)
[24] = target: PTK6 (human) (UniProt Q13882)
[25] = target: ABL1 (human) (UniProt P00519)
[26] = target: PAK6 (human) (UniProt Q9NQU5)
[27] = target: TEK (human) (UniProt Q02763)
[28] = target: MAP4K5 (human) (UniProt Q9Y4K4)
[29] = target: MAPK11 (human) (UniProt Q15759)
[30] = target: MAPK7 (human) (UniProt Q13164)
[31] = target: WNK1 (human) (UniProt Q9H4A3)
[32] = target: TLK1 (human) (UniProt Q9UKI8)

Chain of OXSR1 (human), O95747 [T185E] (O95747 whole entry T185E, looked up): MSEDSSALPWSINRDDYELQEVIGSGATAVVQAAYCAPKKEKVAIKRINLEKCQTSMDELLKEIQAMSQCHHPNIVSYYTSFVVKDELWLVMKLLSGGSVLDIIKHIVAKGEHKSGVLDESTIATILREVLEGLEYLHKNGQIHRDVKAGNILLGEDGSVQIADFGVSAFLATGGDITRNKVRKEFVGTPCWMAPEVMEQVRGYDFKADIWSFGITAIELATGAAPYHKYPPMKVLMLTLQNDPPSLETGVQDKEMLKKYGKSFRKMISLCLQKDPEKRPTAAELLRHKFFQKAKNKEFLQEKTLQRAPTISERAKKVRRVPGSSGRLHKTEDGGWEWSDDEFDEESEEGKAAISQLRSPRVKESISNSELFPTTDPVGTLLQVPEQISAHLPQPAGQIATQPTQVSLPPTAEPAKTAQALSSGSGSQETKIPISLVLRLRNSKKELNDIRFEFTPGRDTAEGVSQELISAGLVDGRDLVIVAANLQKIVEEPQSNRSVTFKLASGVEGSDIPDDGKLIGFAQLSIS
Chain of ABL1 (human) (P00519 whole entry, looked up): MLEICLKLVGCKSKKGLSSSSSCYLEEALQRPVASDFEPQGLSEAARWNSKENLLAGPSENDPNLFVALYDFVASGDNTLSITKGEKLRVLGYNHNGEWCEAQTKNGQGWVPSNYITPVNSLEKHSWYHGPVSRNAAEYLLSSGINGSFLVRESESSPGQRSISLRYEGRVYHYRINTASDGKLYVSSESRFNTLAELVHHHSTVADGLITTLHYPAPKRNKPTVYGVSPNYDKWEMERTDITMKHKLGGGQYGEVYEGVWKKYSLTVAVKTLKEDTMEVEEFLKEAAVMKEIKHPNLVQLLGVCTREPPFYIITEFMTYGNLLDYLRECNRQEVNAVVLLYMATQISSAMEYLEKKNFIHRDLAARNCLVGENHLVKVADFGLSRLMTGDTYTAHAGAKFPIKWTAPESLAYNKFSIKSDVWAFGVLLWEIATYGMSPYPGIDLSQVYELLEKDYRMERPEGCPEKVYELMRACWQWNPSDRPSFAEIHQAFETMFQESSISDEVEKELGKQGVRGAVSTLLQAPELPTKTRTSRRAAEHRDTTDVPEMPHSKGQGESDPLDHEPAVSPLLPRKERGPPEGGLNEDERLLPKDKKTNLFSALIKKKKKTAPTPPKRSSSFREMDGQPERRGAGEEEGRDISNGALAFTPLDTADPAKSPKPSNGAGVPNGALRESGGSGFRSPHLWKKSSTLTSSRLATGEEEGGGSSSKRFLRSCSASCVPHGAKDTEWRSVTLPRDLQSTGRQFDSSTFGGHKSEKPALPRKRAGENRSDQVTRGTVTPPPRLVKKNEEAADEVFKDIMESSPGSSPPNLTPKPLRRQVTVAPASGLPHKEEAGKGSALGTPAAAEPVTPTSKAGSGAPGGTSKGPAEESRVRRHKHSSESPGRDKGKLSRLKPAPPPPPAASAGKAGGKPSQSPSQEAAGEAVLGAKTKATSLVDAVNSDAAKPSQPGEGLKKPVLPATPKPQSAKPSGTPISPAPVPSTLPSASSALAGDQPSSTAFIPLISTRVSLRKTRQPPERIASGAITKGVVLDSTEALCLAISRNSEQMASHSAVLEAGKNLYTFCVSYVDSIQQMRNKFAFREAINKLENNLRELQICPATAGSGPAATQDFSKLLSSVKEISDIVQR
Chain of CSNK1G2 (human) (P78368 whole entry, looked up): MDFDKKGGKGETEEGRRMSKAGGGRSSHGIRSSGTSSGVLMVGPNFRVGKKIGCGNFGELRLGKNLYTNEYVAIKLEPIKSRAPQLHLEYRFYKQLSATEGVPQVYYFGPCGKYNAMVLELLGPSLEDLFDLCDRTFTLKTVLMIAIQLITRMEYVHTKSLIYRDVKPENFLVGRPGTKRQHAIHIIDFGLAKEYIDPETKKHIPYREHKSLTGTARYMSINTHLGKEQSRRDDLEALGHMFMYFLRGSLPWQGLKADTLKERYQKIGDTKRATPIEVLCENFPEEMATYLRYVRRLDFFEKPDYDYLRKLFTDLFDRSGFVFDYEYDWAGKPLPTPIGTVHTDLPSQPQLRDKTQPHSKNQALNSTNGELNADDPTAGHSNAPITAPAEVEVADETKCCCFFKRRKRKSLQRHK
Chain of STK16 (human) (O75716 whole entry, looked up): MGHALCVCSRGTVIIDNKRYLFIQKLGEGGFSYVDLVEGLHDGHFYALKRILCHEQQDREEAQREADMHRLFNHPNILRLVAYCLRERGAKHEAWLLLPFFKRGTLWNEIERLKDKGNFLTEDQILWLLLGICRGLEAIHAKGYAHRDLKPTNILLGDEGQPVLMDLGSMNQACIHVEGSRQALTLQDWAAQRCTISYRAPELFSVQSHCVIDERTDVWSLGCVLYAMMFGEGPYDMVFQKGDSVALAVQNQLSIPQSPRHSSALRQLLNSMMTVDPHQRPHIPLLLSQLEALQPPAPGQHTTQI
Chain of TSSK1B (human) (Q9BXA7 whole entry, looked up): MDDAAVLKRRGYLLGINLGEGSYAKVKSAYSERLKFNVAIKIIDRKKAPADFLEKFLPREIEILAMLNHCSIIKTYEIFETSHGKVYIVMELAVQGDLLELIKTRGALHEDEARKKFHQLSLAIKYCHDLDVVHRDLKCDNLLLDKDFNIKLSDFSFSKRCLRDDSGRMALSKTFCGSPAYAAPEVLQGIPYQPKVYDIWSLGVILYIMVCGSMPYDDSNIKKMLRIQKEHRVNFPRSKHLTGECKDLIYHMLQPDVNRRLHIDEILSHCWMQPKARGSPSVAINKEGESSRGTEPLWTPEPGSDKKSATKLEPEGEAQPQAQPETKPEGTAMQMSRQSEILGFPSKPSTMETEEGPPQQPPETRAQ
Chain of MAP4K3 (human) (Q8IVH8 whole entry, looked up): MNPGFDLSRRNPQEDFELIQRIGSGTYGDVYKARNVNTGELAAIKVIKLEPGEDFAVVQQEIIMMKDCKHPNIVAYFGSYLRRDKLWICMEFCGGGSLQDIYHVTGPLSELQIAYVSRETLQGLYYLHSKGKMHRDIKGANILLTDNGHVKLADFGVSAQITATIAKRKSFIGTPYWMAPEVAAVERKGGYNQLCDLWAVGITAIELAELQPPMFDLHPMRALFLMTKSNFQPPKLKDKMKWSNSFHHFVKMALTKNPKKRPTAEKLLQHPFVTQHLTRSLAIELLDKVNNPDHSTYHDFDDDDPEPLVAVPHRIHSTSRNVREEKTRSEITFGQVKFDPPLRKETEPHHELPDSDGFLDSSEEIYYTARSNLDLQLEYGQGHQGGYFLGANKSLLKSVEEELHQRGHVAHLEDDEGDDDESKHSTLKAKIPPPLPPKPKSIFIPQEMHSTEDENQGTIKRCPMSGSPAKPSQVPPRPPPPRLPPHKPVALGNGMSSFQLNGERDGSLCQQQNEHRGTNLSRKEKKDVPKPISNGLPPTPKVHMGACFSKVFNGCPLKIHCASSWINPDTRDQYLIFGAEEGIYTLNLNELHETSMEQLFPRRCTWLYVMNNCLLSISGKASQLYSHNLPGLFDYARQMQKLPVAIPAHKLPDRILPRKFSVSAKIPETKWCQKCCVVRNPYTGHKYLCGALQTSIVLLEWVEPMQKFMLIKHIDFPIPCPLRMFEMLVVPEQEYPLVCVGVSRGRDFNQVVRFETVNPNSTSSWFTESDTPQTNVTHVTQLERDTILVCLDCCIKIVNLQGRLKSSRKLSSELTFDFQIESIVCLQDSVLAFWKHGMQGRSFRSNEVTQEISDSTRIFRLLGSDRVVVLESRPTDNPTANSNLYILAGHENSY
Chain of ULK1 (human) (O75385 whole entry, looked up): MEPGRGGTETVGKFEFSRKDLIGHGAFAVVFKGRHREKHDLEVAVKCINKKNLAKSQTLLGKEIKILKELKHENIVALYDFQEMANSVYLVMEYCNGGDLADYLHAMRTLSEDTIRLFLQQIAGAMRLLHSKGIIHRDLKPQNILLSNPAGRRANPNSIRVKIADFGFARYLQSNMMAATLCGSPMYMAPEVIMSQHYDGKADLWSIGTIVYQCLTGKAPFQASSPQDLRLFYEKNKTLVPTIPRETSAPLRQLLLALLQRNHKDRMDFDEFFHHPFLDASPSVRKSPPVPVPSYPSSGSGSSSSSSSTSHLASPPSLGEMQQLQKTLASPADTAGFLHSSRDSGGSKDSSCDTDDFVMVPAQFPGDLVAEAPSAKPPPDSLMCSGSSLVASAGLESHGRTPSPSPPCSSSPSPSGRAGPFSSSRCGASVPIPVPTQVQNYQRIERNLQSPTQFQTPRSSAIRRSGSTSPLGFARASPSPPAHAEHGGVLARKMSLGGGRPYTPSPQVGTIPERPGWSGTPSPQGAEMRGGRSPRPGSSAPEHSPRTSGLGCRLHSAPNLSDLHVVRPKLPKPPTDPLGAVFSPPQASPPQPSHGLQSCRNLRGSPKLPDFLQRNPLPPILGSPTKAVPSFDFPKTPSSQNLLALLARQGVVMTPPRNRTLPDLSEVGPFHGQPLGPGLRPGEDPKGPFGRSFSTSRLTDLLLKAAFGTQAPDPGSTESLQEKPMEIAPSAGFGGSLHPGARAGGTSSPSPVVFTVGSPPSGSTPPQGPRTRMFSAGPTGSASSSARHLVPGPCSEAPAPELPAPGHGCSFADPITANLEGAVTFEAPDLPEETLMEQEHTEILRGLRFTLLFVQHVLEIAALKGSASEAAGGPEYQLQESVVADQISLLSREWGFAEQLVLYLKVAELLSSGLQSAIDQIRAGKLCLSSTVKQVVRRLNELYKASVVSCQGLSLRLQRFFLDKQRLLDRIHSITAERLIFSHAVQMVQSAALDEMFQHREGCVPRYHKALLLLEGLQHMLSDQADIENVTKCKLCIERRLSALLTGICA
Chain of MAPK11 (human) (Q15759 whole entry, looked up): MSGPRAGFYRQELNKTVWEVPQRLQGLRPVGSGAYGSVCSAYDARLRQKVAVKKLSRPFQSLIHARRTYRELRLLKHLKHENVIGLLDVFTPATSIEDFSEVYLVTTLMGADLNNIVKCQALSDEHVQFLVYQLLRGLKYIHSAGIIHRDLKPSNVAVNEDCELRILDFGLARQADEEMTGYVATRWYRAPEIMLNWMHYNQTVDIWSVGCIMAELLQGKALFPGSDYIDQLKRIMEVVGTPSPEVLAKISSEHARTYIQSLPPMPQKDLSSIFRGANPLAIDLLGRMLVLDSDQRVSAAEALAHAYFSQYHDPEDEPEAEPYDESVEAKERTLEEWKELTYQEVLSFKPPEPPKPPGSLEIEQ

residual activity ([1]; compound 1.0 µM): 99%
residual activity ([1]; compound 10.0 µM): 80%
residual activity ([2]; compound 1.0 µM): 108%
residual activity ([2]; compound 10.0 µM): 95%
residual activity ([3]; compound 1.0 µM): 110%
residual activity ([3]; compound 10.0 µM): 88%
residual activity ([4]; compound 1.0 µM): 110%
residual activity ([4]; compound 10.0 µM): 102%
residual activity ([5]; compound 1.0 µM): 100%
residual activity ([5]; compound 10.0 µM): 93%
residual activity ([6]; compound 1.0 µM): 96%
residual activity ([6]; compound 10.0 µM): 90%
residual activity ([7]; compound 1.0 µM): 39%
residual activity ([7]; compound 10.0 µM): 22%
residual activity ([8]; compound 1.0 µM): 91%
residual activity ([8]; compound 10.0 µM): 61%
residual activity ([9]; compound 1.0 µM): 91%
residual activity ([9]; compound 10.0 µM): 90%
residual activity ([10]; compound 1.0 µM): 12%
residual activity ([10]; compound 10.0 µM): 3%
residual activity ([11]; compound 1.0 µM): 71%
residual activity ([11]; compound 10.0 µM): 29%
residual activity ([12]; compound 1.0 µM): 99%
residual activity ([12]; compound 10.0 µM): 54%
residual activity ([13]; compound 1.0 µM): 98%
residual activity ([13]; compound 10.0 µM): 47%
residual activity ([14]; compound 1.0 µM): 66%
residual activity ([14]; compound 10.0 µM): 21%
residual activity ([15]; compound 1.0 µM): 92%
residual activity ([15]; compound 10.0 µM): 61%
residual activity ([16]; compound 1.0 µM): 97%
residual activity ([16]; compound 10.0 µM): 96%
residual activity ([17]; compound 1.0 µM): 104%
residual activity ([17]; compound 10.0 µM): 98%
residual activity ([18]; compound 1.0 µM): 100%
residual activity ([18]; compound 10.0 µM): 84%
residual activity ([19]; compound 1.0 µM): 102%
residual activity ([19]; compound 10.0 µM): 79%
residual activity ([20]; compound 1.0 µM): 69%
residual activity ([20]; compound 10.0 µM): 21%
residual activity ([21]; compound 1.0 µM): 97%
residual activity ([21]; compound 10.0 µM): 98%
residual activity ([22]; compound 1.0 µM): 97%
residual activity ([22]; compound 10.0 µM): 81%
residual activity ([23]; compound 1.0 µM): 95%
residual activity ([23]; compound 10.0 µM): 74%
residual activity ([24]; compound 1.0 µM): 57%
residual activity ([24]; compound 10.0 µM): 15%
residual activity ([25]; compound 1.0 µM): 102%
residual activity ([25]; compound 10.0 µM): 106%
residual activity ([26]; compound 1.0 µM): 107%
residual activity ([26]; compound 10.0 µM): 93%
residual activity ([27]; compound 1.0 µM): 100%
residual activity ([27]; compound 10.0 µM): 85%
residual activity ([28]; compound 1.0 µM): 109%
residual activity ([28]; compound 10.0 µM): 90%
residual activity ([29]; compound 1.0 µM): 98%
residual activity ([29]; compound 10.0 µM): 91%
residual activity ([30]; compound 1.0 µM): 65%
residual activity ([30]; compound 10.0 µM): 32%
residual activity ([31]; compound 1.0 µM): 103%
residual activity ([31]; compound 10.0 µM): 104%
residual activity ([32]; compound 1.0 µM): 104%
residual activity ([32]; compound 10.0 µM): 101%
Compound: CCNc1nc(Nc2cc(F)c(C(=O)N3CCOCC3)cc2OC)ncc1C(F)(F)F

residual activity ([1]; compound 10.0 µM): 95%
residual activity ([1]; compound 100.0 µM): 107%
residual activity ([2]; compound 10.0 µM): 106%
residual activity ([2]; compound 100.0 µM): 113%
residual activity ([2]; compound 1000.0 µM): 114%
residual activity ([3]; compound 10.0 µM): 98%
residual activity ([3]; compound 1000.0 µM): 110%
residual activity ([4]; compound 10.0 µM): 93%
residual activity ([4]; compound 1000.0 µM): 95%
residual activity ([5]; compound 10.0 µM): 101%
residual activity ([5]; compound 100.0 µM): 100%
residual activity ([5]; compound 1000.0 µM): 97%
residual activity ([6]; compound 10.0 µM): 91%
residual activity ([6]; compound 100.0 µM): 98%
residual activity ([6]; compound 1000.0 µM): 103%
residual activity ([7]; compound 10.0 µM): 93%
residual activity ([7]; compound 100.0 µM): 99%
residual activity ([7]; compound 1000.0 µM): 102%
residual activity ([8]; compound 10.0 µM): 101%
residual activity ([8]; compound 100.0 µM): 103%
residual activity ([8]; compound 1000.0 µM): 104%
residual activity ([9]; compound 10.0 µM): 92%
residual activity ([9]; compound 100.0 µM): 101%
residual activity ([9]; compound 1000.0 µM): 101%
residual activity ([10]; compound 10.0 µM): 73%
residual activity ([10]; compound 100.0 µM): 85%
residual activity ([10]; compound 1000.0 µM): 80%
residual activity ([11]; compound 10.0 µM): 87%
residual activity ([11]; compound 100.0 µM): 95%
residual activity ([11]; compound 1000.0 µM): 102%
residual activity ([12]; compound 10.0 µM): 96%
residual activity ([12]; compound 100.0 µM): 107%
residual activity ([12]; compound 1000.0 µM): 116%
residual activity ([13]; compound 10.0 µM): 97%
residual activity ([13]; compound 100.0 µM): 99%
residual activity ([13]; compound 1000.0 µM): 103%
residual activity ([14]; compound 10.0 µM): 82%
residual activity ([14]; compound 100.0 µM): 94%
residual activity ([14]; compound 1000.0 µM): 103%
residual activity ([15]; compound 10.0 µM): 106%
residual activity ([15]; compound 100.0 µM): 109%
residual activity ([15]; compound 1000.0 µM): 109%
residual activity ([16]; compound 10.0 µM): 114%
residual activity ([16]; compound 100.0 µM): 116%
residual activity ([16]; compound 1000.0 µM): 109%
residual activity ([17]; compound 10.0 µM): 84%
residual activity ([17]; compound 100.0 µM): 89%
residual activity ([17]; compound 1000.0 µM): 109%
residual activity ([18]; compound 10.0 µM): 88%
residual activity ([18]; compound 100.0 µM): 101%
residual activity ([19]; compound 10.0 µM): 116%
residual activity ([19]; compound 100.0 µM): 116%
residual activity ([19]; compound 1000.0 µM): 112%
residual activity ([20]; compound 10.0 µM): 92%
residual activity ([20]; compound 100.0 µM): 81%
residual activity ([20]; compound 1000.0 µM): 85%
residual activity ([21]; compound 10.0 µM): 103%
residual activity ([21]; compound 100.0 µM): 100%
residual activity ([22]; compound 100.0 µM): 104%
residual activity ([22]; compound 1000.0 µM): 112%
residual activity ([23]; compound 10.0 µM): 96%
residual activity ([23]; compound 100.0 µM): 99%
residual activity ([23]; compound 1000.0 µM): 96%
residual activity ([24]; compound 10.0 µM): 102%
residual activity ([24]; compound 100.0 µM): 112%
residual activity ([24]; compound 1000.0 µM): 110%
residual activity ([25]; compound 10.0 µM): 98%
residual activity ([25]; compound 100.0 µM): 105%
residual activity ([25]; compound 1000.0 µM): 95%
residual activity ([26]; compound 10.0 µM): 90%
residual activity ([26]; compound 100.0 µM): 98%
residual activity ([26]; compound 1000.0 µM): 103%
residual activity ([27]; compound 10.0 µM): 92%
residual activity ([27]; compound 100.0 µM): 100%
residual activity ([27]; compound 1000.0 µM): 99%
residual activity ([28]; compound 10.0 µM): 91%
residual activity ([28]; compound 100.0 µM): 87%
residual activity ([29]; compound 10.0 µM): 111%
residual activity ([29]; compound 1000.0 µM): 104%
residual activity ([30]; compound 10.0 µM): 88%
residual activity ([30]; compound 100.0 µM): 94%
residual activity ([30]; compound 1000.0 µM): 97%
residual activity ([31]; compound 10.0 µM): 109%
residual activity ([31]; compound 100.0 µM): 104%
residual activity ([31]; compound 1000.0 µM): 114%
residual activity ([32]; compound 10.0 µM): 103%
residual activity ([32]; compound 100.0 µM): 117%
residual activity ([32]; compound 1000.0 µM): 110%
Compound: COC(=O)/C=C/C(=O)OC

— the kinase profiling compilation of Christmann-Franck et al. (2016)
